From ChEMBL document CHEMBL1909046, “DrugMatrix in vitro pharmacology data”
*1 amine or outer side, *2 acyl side, *3 side chain or, on linkers, in order; H or OH if unused. Where a SMILES comes first, the peptide text is derived from it. Bridges are numbered along the chain shown (N, C = ends). Roman numbers before positions name the chains, in order. [ ]: non-standard residue; d: D form. Actinocin(1to9) = Cc1c2oc3c(C)ccc(C(=O)[*:2])c3nc-2c(C(=O)[*:1])c(N)c1=O; NMeV = CN[C@H](C(=O)O)C(C)C; Sar = CNCC(=O)O

Key:
[1] = target: T1, Muscarinic acetylcholine receptor M5 (Homo sapiens, UniProt P08912); assay type: cell membranes, CHO-K1, Membrane; details: cho-k1; note: in other assays of this panel Not Active means under 50% inhibition at 10 µM
T1 sequence (P08912 whole entry): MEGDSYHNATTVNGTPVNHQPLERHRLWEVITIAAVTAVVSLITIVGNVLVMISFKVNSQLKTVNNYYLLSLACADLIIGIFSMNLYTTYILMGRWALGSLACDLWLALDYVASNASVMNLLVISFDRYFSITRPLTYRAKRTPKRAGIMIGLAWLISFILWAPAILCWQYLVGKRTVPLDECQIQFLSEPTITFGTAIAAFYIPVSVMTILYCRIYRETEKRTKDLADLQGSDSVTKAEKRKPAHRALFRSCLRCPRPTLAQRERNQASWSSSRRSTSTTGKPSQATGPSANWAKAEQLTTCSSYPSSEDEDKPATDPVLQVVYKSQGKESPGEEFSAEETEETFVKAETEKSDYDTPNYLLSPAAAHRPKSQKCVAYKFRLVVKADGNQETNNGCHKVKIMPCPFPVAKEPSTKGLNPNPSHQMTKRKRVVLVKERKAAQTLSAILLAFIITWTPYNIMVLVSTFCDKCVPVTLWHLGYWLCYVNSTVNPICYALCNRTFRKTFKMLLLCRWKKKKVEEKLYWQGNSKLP

[2] = DRUGMATRIX: Platelet-Derived Growth Factor (PDGF) radioligand binding (ligand: [125I] PDGF); assay type: cell-based; details: nih3t3; Not Active = under 50% inhibition at 10 µM
[3] = target: T2, C-X-C chemokine receptor type 2 (Homo sapiens, UniProt P25025); assay type: cell membranes, Membrane; details: cho-k1; note: in other assays of this panel Not Active means under 50% inhibition at 10 µM
T2 sequence (P25025 whole entry): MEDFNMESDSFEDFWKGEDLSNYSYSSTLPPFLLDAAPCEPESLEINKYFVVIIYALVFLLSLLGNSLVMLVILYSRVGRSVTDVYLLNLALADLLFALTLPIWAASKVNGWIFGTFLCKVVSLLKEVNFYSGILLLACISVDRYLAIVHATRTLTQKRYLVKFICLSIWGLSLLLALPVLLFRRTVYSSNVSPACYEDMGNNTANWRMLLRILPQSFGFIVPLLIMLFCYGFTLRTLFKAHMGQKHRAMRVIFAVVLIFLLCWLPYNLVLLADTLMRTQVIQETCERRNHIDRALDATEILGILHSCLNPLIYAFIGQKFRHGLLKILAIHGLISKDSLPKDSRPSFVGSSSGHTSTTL

[4] = DRUGMATRIX: Tumor Necrosis Factor (TNF), Non-Selective radioligand binding (ligand: [125I] TNF-alpha); assay type: cell membranes, Membrane; details: u-937; Not Active = under 50% inhibition at 10 µM
[5] = DRUGMATRIX: Interleukin IL-1 radioligand binding (ligand: [125I] interleukin 1beta); assay type: cell membranes, Membrane; details: nih3t3; Not Active = under 50% inhibition at 10 µM
Cytochrome P450 1A2 = target: T3, Cytochrome P450 1A2 (Homo sapiens, UniProt P05177); details: bti-tn-5b1-4; note: in other assays of this panel Not Active means under 50% inhibition at 10 µM
T3 sequence (P05177 whole entry): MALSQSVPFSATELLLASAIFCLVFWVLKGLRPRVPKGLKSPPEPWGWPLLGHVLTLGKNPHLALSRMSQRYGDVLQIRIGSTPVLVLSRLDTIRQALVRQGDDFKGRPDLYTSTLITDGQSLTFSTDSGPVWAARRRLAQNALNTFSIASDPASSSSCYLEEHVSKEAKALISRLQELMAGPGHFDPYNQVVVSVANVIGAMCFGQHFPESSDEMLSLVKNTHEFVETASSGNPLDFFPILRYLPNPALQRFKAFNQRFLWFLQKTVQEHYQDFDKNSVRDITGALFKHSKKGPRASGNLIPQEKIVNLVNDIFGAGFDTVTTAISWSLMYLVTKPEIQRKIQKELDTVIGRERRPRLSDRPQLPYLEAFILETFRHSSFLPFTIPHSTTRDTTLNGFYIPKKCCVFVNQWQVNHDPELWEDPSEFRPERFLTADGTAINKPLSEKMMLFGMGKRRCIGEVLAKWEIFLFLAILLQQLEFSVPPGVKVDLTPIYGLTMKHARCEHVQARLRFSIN

Substance-K receptor = target: T4, Substance-K receptor (Homo sapiens, UniProt P21452); assay type: cell membranes, CHO, Membrane; details: cho; note: in other assays of this panel Not Active means under 50% inhibition at 10 µM
T4 sequence (P21452 whole entry): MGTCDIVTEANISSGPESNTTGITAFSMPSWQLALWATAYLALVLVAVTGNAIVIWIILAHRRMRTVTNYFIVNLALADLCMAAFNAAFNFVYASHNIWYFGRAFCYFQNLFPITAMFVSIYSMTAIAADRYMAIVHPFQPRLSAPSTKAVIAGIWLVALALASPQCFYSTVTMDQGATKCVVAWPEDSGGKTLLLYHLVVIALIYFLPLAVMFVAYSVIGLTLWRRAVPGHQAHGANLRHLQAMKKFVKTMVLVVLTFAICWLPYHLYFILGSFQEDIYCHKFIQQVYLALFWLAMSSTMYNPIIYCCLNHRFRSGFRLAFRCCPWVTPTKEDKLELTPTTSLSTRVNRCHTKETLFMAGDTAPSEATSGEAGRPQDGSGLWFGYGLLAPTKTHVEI

Glucocorticoid receptor = target: T5, Glucocorticoid receptor (Homo sapiens, UniProt P04150); details: hela s3; note: in other assays of this panel Not Active means under 50% inhibition at 10 µM
T5 sequence (P04150 whole entry): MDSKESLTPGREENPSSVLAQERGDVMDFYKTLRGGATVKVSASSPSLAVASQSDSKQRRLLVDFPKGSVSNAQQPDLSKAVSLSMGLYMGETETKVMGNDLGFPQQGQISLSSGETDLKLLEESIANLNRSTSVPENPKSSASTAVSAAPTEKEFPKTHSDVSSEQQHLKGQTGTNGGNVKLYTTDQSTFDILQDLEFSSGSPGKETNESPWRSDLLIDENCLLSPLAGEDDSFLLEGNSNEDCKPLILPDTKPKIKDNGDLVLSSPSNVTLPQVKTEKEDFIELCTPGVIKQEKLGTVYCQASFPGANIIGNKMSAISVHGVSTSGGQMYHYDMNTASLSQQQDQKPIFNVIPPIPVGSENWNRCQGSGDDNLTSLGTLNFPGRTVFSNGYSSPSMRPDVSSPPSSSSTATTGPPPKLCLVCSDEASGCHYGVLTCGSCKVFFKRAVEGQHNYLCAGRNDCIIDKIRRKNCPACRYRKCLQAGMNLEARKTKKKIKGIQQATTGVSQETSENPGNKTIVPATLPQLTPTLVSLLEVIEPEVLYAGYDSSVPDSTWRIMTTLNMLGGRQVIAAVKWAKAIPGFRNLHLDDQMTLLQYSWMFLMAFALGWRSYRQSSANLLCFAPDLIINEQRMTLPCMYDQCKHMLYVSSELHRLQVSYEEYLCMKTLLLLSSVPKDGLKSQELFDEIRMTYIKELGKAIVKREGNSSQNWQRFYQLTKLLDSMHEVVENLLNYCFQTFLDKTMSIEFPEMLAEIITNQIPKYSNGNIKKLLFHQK

Clc1cccc(Cl)c1NC1=NCCN1 [CLONIDINE]
Not Active: IC50 [1] | IC50 [2] | Ki [2] | IC50 [3] | IC50 [4] | Ki [4] | IC50 [5] | Ki [5] | IC50 (Cytochrome P450 1A2) | Ki (Cytochrome P450 1A2) | IC50 (Substance-K receptor) | IC50 (Glucocorticoid receptor)

OC(Cn1cncn1)(Cn1cncn1)c1ccc(F)cc1F [FLUCONAZOLE]
Not Active: IC50 [1] | IC50 [2] | Ki [2] | IC50 [3] | IC50 [4] | Ki [4] | IC50 [5] | Ki [5] | IC50 (Cytochrome P450 1A2) | Ki (Cytochrome P450 1A2) | IC50 (Substance-K receptor) | IC50 (Glucocorticoid receptor)

Cc1cc(C2CCCCC2)n(O)c(=O)c1 [CICLOPIROX]
Not Active: IC50 [1] | IC50 [2] | Ki [2] | IC50 [3] | IC50 [4] | Ki [4] | IC50 [5] | Ki [5] | IC50 (Cytochrome P450 1A2) | Ki (Cytochrome P450 1A2) | IC50 (Substance-K receptor) | IC50 (Glucocorticoid receptor)

Cc1c(C)c2c(c(C)c1O)CC[C@@](C)(CCC[C@H](C)CCC[C@H](C)CCCC(C)C)O2 [ALPHA-TOCOPHEROL]
Not Active: IC50 [1] | IC50 [2] | Ki [2] | IC50 [3] | IC50 [4] | Ki [4] | IC50 [5] | Ki [5] | IC50 (Cytochrome P450 1A2) | Ki (Cytochrome P450 1A2) | IC50 (Substance-K receptor) | IC50 (Glucocorticoid receptor)

Cc1c2oc3c(C)ccc(C(=O)N[C@@H]4C(=O)N[C@H](C(C)C)C(=O)N5CCC[C@H]5C(=O)N(C)CC(=O)N(C)[C@@H](C(C)C)C(=O)O[C@@H]4C)c3nc-2c(C(=O)N[C@@H]2C(=O)N[C@H](C(C)C)C(=O)N3CCC[C@H]3C(=O)N(C)CC(=O)N(C)[C@@H](C(C)C)C(=O)O[C@@H]2C)c(N)c1=O [DACTINOMYCIN] (I: T[dV]P[Sar][NMeV] / II: T[dV]P[Sar][NMeV]; ester I:1-I:C, II:1-II:C; linker I:N-II:N via Actinocin(1to9))
Not Active: IC50 [1] | IC50 [2] | Ki [2] | IC50 [3] | IC50 [4] | Ki [4] | IC50 [5] | Ki [5] | IC50 (Cytochrome P450 1A2) | Ki (Cytochrome P450 1A2) | IC50 (Substance-K receptor) | IC50 (Glucocorticoid receptor)

C[C@H](CCC(=O)O)[C@H]1CC[C@H]2[C@@H]3[C@H](O)C[C@@H]4C[C@H](O)CC[C@]4(C)[C@H]3C[C@H](O)[C@]12C [CHOLIC ACID]
Not Active: IC50 [1] | IC50 [2] | Ki [2] | IC50 [3] | IC50 [4] | Ki [4] | IC50 [5] | Ki [5] | IC50 (Cytochrome P450 1A2) | Ki (Cytochrome P450 1A2) | IC50 (Substance-K receptor) | IC50 (Glucocorticoid receptor)

CN(Cc1ccc(C(C)(C)C)cc1)Cc1cccc2ccccc12 [BUTENAFINE]
Not Active: IC50 [1] | IC50 [2] | Ki [2] | IC50 [3] | IC50 [4] | Ki [4] | IC50 [5] | Ki [5] | IC50 (Cytochrome P450 1A2) | Ki (Cytochrome P450 1A2) | IC50 (Substance-K receptor) | IC50 (Glucocorticoid receptor)

C[C@H]1O[C@@H](O[C@H]2[C@@H](O)C[C@H](O[C@H]3[C@@H](O)C[C@H](O[C@H]4CC[C@@]5(C)[C@H](CC[C@@H]6[C@@H]5C[C@@H](O)[C@]5(C)[C@@H](C7=CC(=O)OC7)CC[C@]65O)C4)O[C@@H]3C)O[C@@H]2C)C[C@H](O)[C@@H]1O [DIGOXIN]
Not Active: IC50 [1] | IC50 [2] | Ki [2] | IC50 [3] | IC50 [4] | Ki [4] | IC50 [5] | Ki [5] | IC50 (Cytochrome P450 1A2) | Ki (Cytochrome P450 1A2) | IC50 (Substance-K receptor) | IC50 (Glucocorticoid receptor)

CCCCc1nc(Cl)c(CO)n1Cc1ccc(-c2ccccc2-c2nnn[nH]2)cc1 [LOSARTAN]
Not Active: IC50 [1] | IC50 [2] | Ki [2] | IC50 [3] | IC50 [4] | Ki [4] | IC50 [5] | Ki [5] | IC50 (Cytochrome P450 1A2) | Ki (Cytochrome P450 1A2) | IC50 (Substance-K receptor) | IC50 (Glucocorticoid receptor)

CNCCc1ccccn1 [BETAHISTINE]
Not Active: IC50 [1] | IC50 [2] | Ki [2] | IC50 [3] | IC50 [4] | Ki [4] | IC50 [5] | Ki [5] | IC50 (Cytochrome P450 1A2) | Ki (Cytochrome P450 1A2) | IC50 (Substance-K receptor) | IC50 (Glucocorticoid receptor)

NC(=O)N1c2ccccc2CCc2ccccc21
Not Active: IC50 [1] | IC50 [2] | Ki [2] | IC50 [3] | IC50 [4] | Ki [4] | IC50 [5] | Ki [5] | IC50 (Cytochrome P450 1A2) | Ki (Cytochrome P450 1A2) | IC50 (Substance-K receptor) | IC50 (Glucocorticoid receptor)

NCCCCCC(=O)O [AMINOCAPROIC ACID]
Not Active: IC50 [1] | IC50 [2] | Ki [2] | IC50 [3] | IC50 [4] | Ki [4] | IC50 [5] | Ki [5] | IC50 (Cytochrome P450 1A2) | Ki (Cytochrome P450 1A2) | IC50 (Substance-K receptor) | IC50 (Glucocorticoid receptor)

C=C(C)C1(O)OC(=O)C=C1OC (stereo unspecified) [PENICILLIC ACID]
Not Active: IC50 [1] | IC50 [2] | Ki [2] | IC50 [3] | IC50 [4] | Ki [4] | IC50 [5] | Ki [5] | IC50 (Cytochrome P450 1A2) | Ki (Cytochrome P450 1A2) | IC50 (Substance-K receptor) | IC50 (Glucocorticoid receptor)
